Results on four substances are retold here after patent US7473679B2, “Treatments employing neuronal exocytosis-inhibiting peptides” (Lipotec, S.A., priority 1999, dated 2009).

In this assay the test system is chromaffin cells permeabilized with digitonin. The experiment in a line: Inhibition of the release of catecholamines induced by calcium in permeabilized chromaffin cells. The class given is cell-based, bovine. The note with it: peptide at 1 mM, stimulated with calcium. The procedure:
The neuronal-exocytosis (neurosecretion) inhibiting capabilities of the peptides of the invention became evident through a test that evaluates the strength of said peptides in inhibiting the release of catecholamines induced by calcium in chromaffin cells permeabilized with a detergent [see Example 1.2.1]. Briefly, the chromaffin cell cultures are incubated with epinephrine and norepinephrine containing tritium, are permeabilized with digitonin, and stimulated with calcium, and the amount of radioactivity released by the cells to the extracellular medium, which is a reflection of the exocytosis of said tritium-containing catecholamines, is measured.
This test was performed to verify the neuronal exocytosis-inhibiting capabilities of the peptides synthesized in Example 1.1. In this test, the strength of said peptides is evaluated in inhibiting the release of catecholamines (norepinephrine and epinephrine) induced by calcium in chromaffin cells (obtained from suprarenal bovine glands) permeabilized with the detergent digitonin, in accordance with the method described by Gutiérrez el al. (1995 and 1997).
Briefly, the chromaffin cell cultures are incubated with [^3H]-epinephrine and [^3H]-norepinephrine, are permeabilized with 20 μM digitonin, and stimulated with calcium (10 μM), in the presence of the peptides to be tested (separate or mixed), and the amount of radioactivity released by the cells to the extracellular medium, which is a reflection of the exocytosis of [^3H]-epinephrine and [^3H]-norepinephrine, is measured.
As for “SEQ. ID. No. 2: hexapeptide from the amino end of protein SNAP-25 (EEMQRR)”, the “inhibition of the release of catecholamines (epinephrine and norepinephrine)” value (shortened to “inhibition”) is listed as “approximately 20%”.

As for “SEQ. ID. No. 6: peptide from the carboxyl end of SNAP-25 [SEQ. ID. No. 4], (COOH) peptide (ADSNKTRIDEANQRATKML)”, the “inhibition” value is reported as “approximately 40%”.

Consider “SEQ. ID. No. 5: peptide from the carboxyl end of SNAP-25 [SEQ. ID. No. 4], (COOH) peptide (RIMEKADSNKTRIDEANQ)”, for which the “inhibition” value is given as “approximately 40%”.

As to “SEQ. ID. No. 3: peptide with 13 amino acids from the amino end of protein SNAP-25 (ELEEMQRRADQLA)”, the “inhibition” value is listed as “approximately 35%”.
